# Data from ChEMBL document CHEMBL3286290, “In vitro screening of pentamidine analogs against bacterial and fungal strains” (Bioorg Med Chem Lett, 2014).
# Counter-ions that a name gives are not always drawn.
# Key:
# Format in all cases: functional
# Staphylococcus aureus [1] = assay: Antibacterial activity against penicillin, erythromycin, amikacin, clindamycin, ciprofloxacin, methicillin-resistant Staphylococcus aureus 495/11 assessed as growth inhibition by M7-A6 method
# Escherichia coli [2] = assay: Antibacterial activity against Escherichia coli ATCC 8739 assessed as growth inhibition by M7-A6 method
# [3] = Antifungal activity against Zygosaccharomyces rouxii ATCC 28253 assessed as growth inhibition by M7-A6 method
# Staphylococcus aureus [4] = assay: Antibacterial activity against erythromycin, amikacin, clindamycin, ciprofloxacin, methicillin-resistant Staphylococcus aureus 15K/11 assessed as growth inhibition by M7-A6 method
# Aspergillus brasiliensis = assay: Antifungal activity against Aspergillus brasiliensis ATCC 16404 assessed as growth inhibition by M7-A6 method
# Pseudomonas aeruginosa [5] = assay: Antibacterial activity against Pseudomonas aeruginosa ATCC 9027 assessed as growth inhibition by M7-A6 method
# Micrococcus luteus [6] = assay: Antibacterial activity against Micrococcus luteus ATCC 9341 assessed as growth inhibition by M7-A6 method
# Micrococcus luteus [7] = assay: Antibacterial activity against Micrococcus luteus ATCC 10240 assessed as growth inhibition by M7-A6 method
# Staphylococcus aureus [8] = assay: Antibacterial activity against penicillin, erythromycin, clindamycin, ciprofloxacin, methicillin-resistant Staphylococcus aureus 19K/11 assessed as growth inhibition by M7-A6 method
# Staphylococcus aureus [9] = assay: Antibacterial activity against penicillin, erythromycin, amikacin, clindamycin, ciprofloxacin, methicillin-resistant Staphylococcus aureus 573/12 assessed as growth inhibition by M7-A6 method
# Escherichia coli [10] = assay: Antibacterial activity against Escherichia coli ATCC 10536 assessed as growth inhibition by M7-A6 method
# Candida albicans [11] = assay: Antifungal activity against Candida albicans ATCC 2091 assessed as growth inhibition by M7-A6 method
# Candida albicans [12] = assay: Antifungal activity against Candida albicans ATCC 10231 assessed as growth inhibition by M7-A6 method
# Staphylococcus aureus [13] = assay: Antibacterial activity against Staphylococcus aureus ATCC 6538P assessed as growth inhibition by M7-A6 method
# Saccharomyces cerevisiae = assay: Antifungal activity against Saccharomyces cerevisiae ATCC 9763 assessed as growth inhibition by M7-A6 method
# Bacillus subtilis = assay: Antibacterial activity against Bacillus subtilis ATCC 6633 assessed as growth inhibition by M7-A6 method
# Candida parapsilosis = assay: Antifungal activity against Candida parapsilosis ATCC 22019 assessed as growth inhibition by M7-A6 method; conditions: Lodderomyces parapsilosis
# Staphylococcus aureus [14] = assay: Antibacterial activity against Staphylococcus aureus ATCC 6538 assessed as growth inhibition by M7-A6 method
# Staphylococcus aureus [15] = assay: Antibacterial activity against penicillin, erythromycin, amikacin, clindamycin, ciprofloxacin, methicillin-resistant Staphylococcus aureus 572/12 assessed as growth inhibition by M7-A6 method
# Pseudomonas aeruginosa [16] = assay: Antibacterial activity against Pseudomonas aeruginosa ATCC 15442 assessed as growth inhibition by M7-A6 method
# Bacillus cereus = assay: Antibacterial activity against Bacillus cereus ATCC 11778 assessed as growth inhibition by M7-A6 method
MIC (Escherichia coli [2]) [µM],MIC [3] [µM],MIC (Aspergillus brasiliensis) [µM],MIC (Pseudomonas aeruginosa [5]) [µM],MIC (Micrococcus luteus [6]) [µM],MIC (Micrococcus luteus [7]) [µM],MIC (Escherichia coli [10]) [µM],MIC (Candida albicans [11]) [µM],MIC (Candida albicans [12]) [µM],MIC (Staphylococcus aureus [13]) [µM],MIC (Saccharomyces cerevisiae) [µM],MIC (Bacillus subtilis) [µM],MIC (Candida parapsilosis) [µM],MIC (Staphylococcus aureus [14]) [µM],MIC (Pseudomonas aeruginosa [16]) [µM],MIC (Bacillus cereus) [µM],SMILES,also measured
6410,–,> 12800,6410,38,64,6410,> 12800,> 12800,320,> 12800,320,> 12800,320,6410,320,COc1cc(C(=N)N)cc(OC)c1OCCN(CCOc1c(OC)cc(C(=N)N)cc1OC)S(=O)(=O)c1ccc(N)cc1,–
3580,1430,7160,7160,72,89,3580,1430,180,360,1430,720,360,140,7160,72,COc1cc(C(=N)N)ccc1OCCN(CCOc1ccc(C(=N)N)cc1OC)S(=O)(=O)c1ccc(NC(C)=O)cc1,–
7040,7040,7040,7040,2.8,7,7040,7040,7040,70,7040,70,7040,70,7040,88,COc1cc(C(=N)N)cc(OC)c1OCCN(CCOc1c(OC)cc(C(=N)N)cc1OC)S(=O)(=O)c1ccccc1,–
210,10,8220,1640,100,16,210,210,210,49,210,82,100,49,1640,16,N=C(N)c1ccc(OCCN(CCOc2ccc(C(=N)N)cc2)S(=O)(=O)c2ccccc2)cc1,–
17000,–,–,> 17000,17,51,17000,> 17000,> 17000,210,–,420,> 17000,210,> 17000,17000,COc1cc(C(=N)N)cc(OC)c1OCCOCCOc1c(OC)cc(C(=N)N)cc1OC,–
21100,–,–,> 21100,1060,1060,21100,> 21100,> 21100,10600,–,2110,10600,21100,> 21100,1060,CN(CCOc1ccc(C(=N)N)cc1)CCOc1ccc(C(=N)N)cc1,–
220,110,8920,1780,3.5,18,220,1780,890,54,4460,89,890,54,4460,110,COc1cc(C(=N)N)cc(OC)c1OCCCCCOc1c(OC)cc(C(=N)N)cc1OC,–
550,–,> 22200,11100,4.4,11,550,> 22200,> 22200,550,11100,550,66,550,11100,550,N=C(N)c1ccc(OCCOCCOc2ccc(C(=N)N)cc2)cc1,–
2370,5920,5920,> 23700,24,71,11800,5920,5920,590,11800,590,71,590,> 23700,590,N=C(N)c1ccc(NCCOCCNc2ccc(C(=N)N)cc2)cc1,–
8130,–,–,> 16300,200,410,16300,> 16300,> 16300,8130,–,810,> 16300,8130,> 16300,100,COc1cc(C(=N)N)ccc1OCCN(C)CCOc1ccc(C(=N)N)cc1OC,–
9780,120,9780,> 19600,3.9,19.5,9780,120,120,120,240,98,20,59,> 19600,59,CN(CCCCCN(C)c1ccc(C(=N)N)cc1)c1ccc(C(=N)N)cc1,–
7610,–,–,> 15200,760,1520,15200,> 15200,> 15200,7610,–,1520,> 15200,7610,> 15200,7610,COc1cc(C(=N)N)cc(OC)c1OCCN(C)CCOc1c(OC)cc(C(=N)N)cc1OC,–
2100,–,21000,> 21000,2100,520,10500,10500,10500,520,10500,2100,5260,260,> 21000,1050,COc1cc(C(=N)N)ccc1OCCOCCOc1ccc(C(=N)N)cc1OC,–
370,180,7380,7380,15,42,740,370,92,42,180,42,370,42,7380,42,COc1cc(C(=N)N)ccc1OCCN(CCOc1ccc(C(=N)N)cc1OC)S(=O)(=O)c1ccccc1,–

SMILES,MIC (Escherichia coli [2]) [µM],MIC [3] [µM],MIC (Aspergillus brasiliensis) [µM],MIC (Pseudomonas aeruginosa [5]) [µM],MIC (Micrococcus luteus [6]) [µM],MIC (Micrococcus luteus [7]) [µM],MIC (Escherichia coli [10]) [µM],MIC (Candida albicans [11]) [µM],MIC (Candida albicans [12]) [µM],MIC (Staphylococcus aureus [13]) [µM],MIC (Saccharomyces cerevisiae) [µM],MIC (Bacillus subtilis) [µM],MIC (Candida parapsilosis) [µM],MIC (Staphylococcus aureus [14]) [µM],MIC (Pseudomonas aeruginosa [16]) [µM],MIC (Bacillus cereus) [µM],also measured
N=C(N)c1ccc(OCCSCCOc2ccc(C(=N)N)cc2)cc1,140,70,70,1740,4.6,23,580,140,140,140,290,140,23,69.5,2320,69.5,MIC (Staphylococcus aureus [1]): 2320 µM; MIC (Staphylococcus aureus [4]): 1160 µM; MIC (Staphylococcus aureus [8]): 140 µM; MIC (Staphylococcus aureus [9]): 290 µM; MIC (Staphylococcus aureus [15]): 290 µM
N=C(N)c1ccc(OCCCCCOc2ccc(C(=N)N)cc2)cc1 [PENTAMIDINE HYDROCHLORIDE],280,67,22,1110,1.1,4.4,280,110,110,67,280,67,4.4,22,1670,1.1,MIC (Staphylococcus aureus [1]): 1110 µM; MIC (Staphylococcus aureus [4]): 1110 µM; MIC (Staphylococcus aureus [8]): 140 µM; MIC (Staphylococcus aureus [9]): 140 µM; MIC (Staphylococcus aureus [15]): 560 µM
